Here are results for 38 compounds from ChEMBL document CHEMBL1145851, “Novel substituted pyridinyl imidazoles as potent anticytokine agents with low activity against hepatic cytochrome P450 enzymes” (J Med Chem, 2003).

Molecules are shown by their SMILES.

Data set [1] concerns the target T1, MAP kinase p38 (Homo sapiens, UniProt O15264+Q15759+Q16539+P53778). In words: Inhibitory activity against induction of IL-1-beta release in PBMCs. Format: functional.
The target in data set [2] is T1, MAP kinase p38. Kind of data set: Inhibitory activity against TNF-alpha release in PBM cells. Format: functional, cell-based.
In data set [3] the target is T1, MAP kinase p38. Kind of data set: Inhibitory activity against mitogen-activated protein kinase p38 at 10 e-4 to 10 e-8 M concentration. The format is protein assay.
Data set [4] concerns the target T1, MAP kinase p38. Kind of data set: Inhibition of p38-related TNF-alpha release by whole blood cells at 10 e-4 to 10 e-8 M. Format: functional.
In data set [5] the target is T1, MAP kinase p38. In words: Inhibition of p38-related IL1-beta release by whole blood cells at 10 e-4 to 10 e-8 M. The format is functional.
The next data set addresses CYP2C19 (Homo sapiens, UniProt P33261). Kind of data set: Inhibition of Cytochrome P450 2C19 at 10 uM. The format is ADME.
A further data set concerns the target CYP2C9 (Homo sapiens, UniProt P11712). Kind of data set: Inhibition of Cytochrome P450 2C9 at 10 uM. The format is ADME.
Another data set has as its target CYP3A4 (Homo sapiens, UniProt P08684). Kind of data set: Inhibition of Cytochrome P450 3A4 at 10 uM. Format: ADME.
The target of another data set is T2, CYP1A2 (Homo sapiens, UniProt P05177).
T2 sequence (P05177 whole entry): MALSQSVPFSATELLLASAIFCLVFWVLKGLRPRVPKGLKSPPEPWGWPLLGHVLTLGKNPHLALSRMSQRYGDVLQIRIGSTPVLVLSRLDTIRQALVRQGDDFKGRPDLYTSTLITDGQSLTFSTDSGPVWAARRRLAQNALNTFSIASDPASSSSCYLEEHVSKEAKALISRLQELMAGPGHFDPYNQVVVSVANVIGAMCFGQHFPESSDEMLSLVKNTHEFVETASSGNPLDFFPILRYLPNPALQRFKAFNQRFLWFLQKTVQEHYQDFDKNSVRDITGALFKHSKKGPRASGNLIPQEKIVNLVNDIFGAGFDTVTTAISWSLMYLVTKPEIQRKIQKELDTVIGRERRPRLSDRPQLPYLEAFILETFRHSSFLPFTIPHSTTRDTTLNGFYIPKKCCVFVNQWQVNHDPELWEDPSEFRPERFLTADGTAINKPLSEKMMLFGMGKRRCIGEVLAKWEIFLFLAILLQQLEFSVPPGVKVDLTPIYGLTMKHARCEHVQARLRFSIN
Kind of data set: Inhibition of Cytochrome P450 1A2 at 10 uM. The format is ADME.

Another data set addresses CYP2D6 (Homo sapiens, UniProt P10635). In words: Inhibition of Cytochrome P450 2D6 at 10 uM. The format is ADME.

Sequence of CYP2C9 (P11712 whole entry): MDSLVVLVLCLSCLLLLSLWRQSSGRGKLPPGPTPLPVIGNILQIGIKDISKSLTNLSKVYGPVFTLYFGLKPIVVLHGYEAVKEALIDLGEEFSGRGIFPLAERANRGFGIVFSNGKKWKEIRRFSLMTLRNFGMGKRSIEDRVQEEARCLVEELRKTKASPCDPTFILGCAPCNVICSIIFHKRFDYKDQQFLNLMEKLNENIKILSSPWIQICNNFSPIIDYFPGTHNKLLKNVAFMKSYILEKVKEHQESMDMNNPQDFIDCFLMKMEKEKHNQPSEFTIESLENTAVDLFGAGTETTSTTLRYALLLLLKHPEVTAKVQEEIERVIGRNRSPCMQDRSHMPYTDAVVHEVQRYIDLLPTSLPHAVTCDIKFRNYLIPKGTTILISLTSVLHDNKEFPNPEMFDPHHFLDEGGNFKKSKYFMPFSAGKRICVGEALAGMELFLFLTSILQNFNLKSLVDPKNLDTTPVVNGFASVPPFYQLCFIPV
Sequence of CYP3A4 (P08684 whole entry): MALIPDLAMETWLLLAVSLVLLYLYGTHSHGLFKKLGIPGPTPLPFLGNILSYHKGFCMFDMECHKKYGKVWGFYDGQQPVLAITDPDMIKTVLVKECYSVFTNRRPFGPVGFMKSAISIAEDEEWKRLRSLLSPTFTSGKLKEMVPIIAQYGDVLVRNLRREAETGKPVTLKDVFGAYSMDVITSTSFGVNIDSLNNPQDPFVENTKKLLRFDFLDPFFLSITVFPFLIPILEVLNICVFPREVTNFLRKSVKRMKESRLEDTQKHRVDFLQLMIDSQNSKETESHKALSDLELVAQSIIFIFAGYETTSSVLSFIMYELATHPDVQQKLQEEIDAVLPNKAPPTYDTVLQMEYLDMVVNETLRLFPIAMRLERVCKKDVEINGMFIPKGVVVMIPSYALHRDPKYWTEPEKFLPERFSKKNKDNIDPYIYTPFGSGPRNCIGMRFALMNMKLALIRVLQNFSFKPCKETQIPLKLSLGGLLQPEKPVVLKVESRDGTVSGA
Sequence of CYP2C19 (P33261 whole entry): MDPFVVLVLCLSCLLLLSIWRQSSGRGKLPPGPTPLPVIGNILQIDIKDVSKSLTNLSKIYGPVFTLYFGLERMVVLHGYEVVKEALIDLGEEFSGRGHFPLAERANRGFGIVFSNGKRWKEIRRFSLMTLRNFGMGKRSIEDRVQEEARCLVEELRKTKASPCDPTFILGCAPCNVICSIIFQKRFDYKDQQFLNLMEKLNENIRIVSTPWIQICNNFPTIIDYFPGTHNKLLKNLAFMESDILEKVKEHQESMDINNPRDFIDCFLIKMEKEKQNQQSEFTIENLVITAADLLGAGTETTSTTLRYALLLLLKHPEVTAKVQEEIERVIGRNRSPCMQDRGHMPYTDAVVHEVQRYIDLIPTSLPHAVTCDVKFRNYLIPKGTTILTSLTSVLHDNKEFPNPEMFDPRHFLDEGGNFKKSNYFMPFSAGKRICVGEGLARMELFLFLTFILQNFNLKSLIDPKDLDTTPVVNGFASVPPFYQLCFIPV
Sequence of CYP2D6 (P10635 whole entry): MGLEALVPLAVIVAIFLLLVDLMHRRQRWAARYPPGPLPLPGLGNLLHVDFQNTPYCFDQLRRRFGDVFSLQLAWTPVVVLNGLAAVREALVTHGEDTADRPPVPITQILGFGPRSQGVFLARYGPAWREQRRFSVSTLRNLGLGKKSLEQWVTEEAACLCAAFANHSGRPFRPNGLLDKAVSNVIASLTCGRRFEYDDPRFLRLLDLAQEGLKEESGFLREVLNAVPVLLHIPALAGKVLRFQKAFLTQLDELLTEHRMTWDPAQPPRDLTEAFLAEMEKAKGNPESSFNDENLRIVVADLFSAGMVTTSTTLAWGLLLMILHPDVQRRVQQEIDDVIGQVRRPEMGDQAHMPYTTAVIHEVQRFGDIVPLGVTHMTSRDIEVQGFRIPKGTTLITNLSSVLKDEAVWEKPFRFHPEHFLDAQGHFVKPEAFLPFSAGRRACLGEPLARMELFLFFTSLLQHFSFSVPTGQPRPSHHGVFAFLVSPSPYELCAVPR

In the case of `COc1ccc(C(=O)Nc2cc(-c3c(-c4ccc(F)cc4)nc(SC)n3C)ccn2)cc1`, the figures for the IC50 against MAP kinase p38 [1] and against MAP kinase p38 [2] were 440 nM and 640 nM, respectively.

`CCNc1cc(-c2c(-c3ccc(F)cc3)nc(SC)n2C)ccn1`: the IC50 (usually the midpoint of a concentration-inhibition curve) was 700 nM on MAP kinase p38 [3]; 71 nM at MAP kinase p38 [1]; 600 nM against MAP kinase p38 [2]; 5000 nM at MAP kinase p38 [4]; 2000 nM on MAP kinase p38 [5].

With `CSc1nc(-c2ccc(F)cc2)c(-c2ccnc(Nc3ccccc3)c2)[nH]1`, the results for the IC50 on MAP kinase p38 [3], against MAP kinase p38 [1] and at MAP kinase p38 [2] were 130 nM, 30 nM and 340 nM, respectively.

Turning to `CC(Nc1cc(-c2[nH]c(SCc3ccc([S+](C)[O-])cc3)nc2-c2ccc(F)cc2)ccn1)c1ccccc1` (centres undefined), the IC50 amounted to 270 nM against MAP kinase p38 [3], 40 nM on MAP kinase p38 [1] and 910 nM on MAP kinase p38 [2].

As to `CSc1nc(-c2ccc(F)cc2)c(-c2ccnc(NCc3ccc(Cl)c(Cl)c3)c2)[nH]1`, the IC50 on MAP kinase p38 [3] is 700 nM; on MAP kinase p38 [1], 230 nM; against MAP kinase p38 [2], 720 nM.

For the compound `COc1ccc(CNc2cc(-c3[nH]c(SCc4ccccc4)nc3-c3ccc(F)cc3)ccn2)cc1`, the IC50 at MAP kinase p38 [1] is 180 nM; on MAP kinase p38 [2], 21000 nM.

For `CSc1nc(-c2ccc(F)cc2)c(-c2ccncc2)n1C1CC(C)(C)NC(C)(C)C1`, the inhibition (as a rule, the percentage by which the read-out fell short of the control) at 10 µM was 15.3% against CYP2C19; 7.9% on CYP2C9; 49.6% against CYP3A4; 9% at CYP1A2; 19.1% on CYP2D6. The IC50 on MAP kinase p38 [3] came to 17000 nM; against MAP kinase p38 [1], 850 nM; against MAP kinase p38 [2] it was 16000 nM; against MAP kinase p38 [4], 19100 nM; against MAP kinase p38 [5], 18500 nM.

For the compound `CSc1nc(-c2ccc(F)cc2)c(-c2ccnc(F)c2)[nH]1`, the IC50 at MAP kinase p38 [3] is 3800 nM; at MAP kinase p38 [1], 300 nM; at MAP kinase p38 [2], 2800 nM.

As to `CCCn1c(SC)nc(-c2ccc(F)cc2)c1-c1ccnc(N)c1`, the IC50 at MAP kinase p38 [1] was 500 nM; against MAP kinase p38 [2], 5400 nM.

For the compound `CSc1nc(-c2ccc(F)cc2)c(-c2ccnc(NCCc3ccccc3)c2)[nH]1`, the IC50 came out at 240 nM against MAP kinase p38 [3], 31 nM at MAP kinase p38 [1] and 350 nM at MAP kinase p38 [2].

Take `CCCn1c(SC)nc(-c2ccc(F)cc2)c1-c1ccncc1`: the IC50 was determined as 2200 nM at MAP kinase p38 [3], 360 nM at MAP kinase p38 [1] and 1300 nM on MAP kinase p38 [2].

For the compound `CSc1nc(-c2ccc(F)cc2)c(-c2ccnc(NCc3ccc(C)cc3)c2)[nH]1`, the IC50 at MAP kinase p38 [3] came out at 830 nM; against MAP kinase p38 [1], 85 nM; against MAP kinase p38 [2], 670 nM.

For `C[S+]([O-])c1ccc(CSc2nc(-c3ccc(F)cc3)c(-c3ccnc(Cl)c3)[nH]2)cc1` (centres undefined), the IC50 was found to be 2100 nM on MAP kinase p38 [1] and 12000 nM at MAP kinase p38 [2].

Turning to `COc1cc(-c2[nH]c(SC)nc2-c2ccc(F)cc2)ccn1`, the figures for the IC50 on MAP kinase p38 [1] and against MAP kinase p38 [2] were 150 nM and 1900 nM, respectively.

Turning to `CSc1nc(-c2ccc(F)cc2)c(-c2ccnc(NCc3ccccc3)c2)[nH]1`, the figures for the concentration for half-maximal inhibition (IC50) against MAP kinase p38 [3], against MAP kinase p38 [1] and on MAP kinase p38 [2] were 650 nM, 108 nM and 630 nM, respectively.

On to `C[S+]([O-])c1ccc(CSc2nc(-c3ccc(F)cc3)c(-c3ccncc3)[nH]2)cc1` (centres undefined), for which the inhibition at 10 µM against CYP2C19 worked out at 73.6%; against CYP2C9, 72.7%; against CYP3A4, 87.1%; against CYP1A2, 8.4%; at CYP2D6, 71.8%. Besides, the IC50 stood at 380 nM at MAP kinase p38 [1] and 1100 nM at MAP kinase p38 [2].

For `Fc1ccc(-c2nc(SCc3ccccc3)[nH]c2-c2ccnc(Cl)c2)cc1`, the IC50 turned out to be 1800 nM at MAP kinase p38 [1] and 60000 nM at MAP kinase p38 [2].

For the compound `C[S+]([O-])c1ccc(-c2nc(-c3ccncc3)c(-c3ccc(F)cc3)[nH]2)cc1` (centres undefined) [SB-203580], the inhibition at 10 µM against CYP2C19 came to 85%; against CYP2C9 it was 75%; against CYP3A4 it was 61%; on CYP1A2 it was 61%; on CYP2D6, 67%.

With `CCNc1cc(-c2c(-c3ccc(F)cc3)nc(SC)n2C2CC(C)(C)NC(C)(C)C2)ccn1`, the IC50 was 220 nM against MAP kinase p38 [3]; 620 nM at MAP kinase p38 [1]; 2900 nM against MAP kinase p38 [2]; 11000 nM on MAP kinase p38 [4]; 2700 nM on MAP kinase p38 [5].

Turning to `CSc1nc(-c2ccc(F)cc2)c(-c2ccnc(NCc3ccc(Cl)cc3)c2)[nH]1`, the IC50 against MAP kinase p38 [3] was 950 nM; at MAP kinase p38 [1], 150 nM; against MAP kinase p38 [2], 500 nM.

Take `CCCn1c(SC)nc(-c2ccc(F)cc2)c1-c1ccnc(NC(C)=O)c1`: the IC50 is 120 nM against MAP kinase p38 [1] and 490 nM on MAP kinase p38 [2].

As to `CSc1nc(-c2ccc(F)cc2)c(-c2ccnc(NC(C)c3ccccc3)c2)n1C` (centres undefined), the inhibition at 10 µM worked out at 90.9% at CYP2C19; 83.3% on CYP2C9; 85.8% against CYP3A4; 57.1% at CYP1A2; 12.4% at CYP2D6. Also, the IC50 against MAP kinase p38 [3] is 220 nM; on MAP kinase p38 [1], 15 nM; at MAP kinase p38 [2] it was 110 nM; against MAP kinase p38 [4] it was 3000 nM; at MAP kinase p38 [5], 4100 nM.

`CSc1nc(-c2ccc(F)cc2)c(-c2ccnc(N)c2)n1C`: the IC50 is 2300 nM against MAP kinase p38 [3], 270 nM against MAP kinase p38 [1] and 3200 nM against MAP kinase p38 [2].

Regarding `COc1ccc(CNc2cc(-c3[nH]c(SC)nc3-c3ccc(F)cc3)ccn2)cc1`, the IC50 on MAP kinase p38 [3] was 790 nM; at MAP kinase p38 [1], 56 nM; at MAP kinase p38 [2], 640 nM.

With `CCCn1c(SC)nc(-c2ccc(F)cc2)c1-c1ccnc(NCC)c1`, the values for the IC50 against MAP kinase p38 [1] and on MAP kinase p38 [2] were 150 nM and 430 nM, respectively.

As for `CSc1nc(-c2ccnc(NC(C)c3ccccc3)c2)c(-c2ccc(F)cc2)n1C` (centres undefined), the IC50 against MAP kinase p38 [3] was determined as 27000 nM.

Regarding `C[S+]([O-])c1ccc(CSc2nc(-c3ccc(F)cc3)c(-c3ccnc(NCc4ccccc4)c3)[nH]2)cc1` (centres undefined), the IC50 on MAP kinase p38 [3] is 1450 nM; at MAP kinase p38 [1] it was 470 nM; at MAP kinase p38 [2], 2000 nM.

With `CSc1nc(-c2ccc(F)cc2)c(-c2ccnc(N(C)Cc3ccccc3)c2)[nH]1`, the IC50 at MAP kinase p38 [3] was found to be 8700 nM; against MAP kinase p38 [1] it was 2700 nM; at MAP kinase p38 [2], 4600 nM.

As to `CSc1nc(-c2ccc(F)cc2)c(-c2ccnc(Cl)c2)[nH]1`, the inhibition at 10 µM came to 41.4% against CYP2C19; 65% on CYP2C9; 48.8% on CYP3A4; 92.6% against CYP1A2; 18.6% on CYP2D6. For the same compound, the IC50 at MAP kinase p38 [1] was 350 nM; on MAP kinase p38 [2], 2200 nM.

Consider `CSc1nc(-c2ccc(F)cc2)c(-c2ccnc(O)c2)[nH]1`, for which the IC50 against MAP kinase p38 [1] is 500 nM; against MAP kinase p38 [2], 3100 nM.

With `Fc1ccc(-c2[nH]c(SCc3ccccc3)nc2-c2ccnc(NCc3ccccc3)c2)cc1`, the IC50 at MAP kinase p38 [3] came to 1420 nM; on MAP kinase p38 [1] it was 200 nM; against MAP kinase p38 [2], 3200 nM.

As to `CSc1nc(-c2ccc(F)cc2)c(-c2ccnc(NCc3ccccc3)c2)n1C`, the IC50 came to 930 nM against MAP kinase p38 [3], 82 nM against MAP kinase p38 [1] and 580 nM against MAP kinase p38 [2].

In the case of `C[S+]([O-])c1ccc(CSc2nc(-c3ccc(F)cc3)c(-c3ccnc(F)c3)[nH]2)cc1` (centres undefined), the IC50 against MAP kinase p38 [3] was found to be 9300 nM; on MAP kinase p38 [1] it was 2450 nM; against MAP kinase p38 [2], 6900 nM.

With `CSc1nc(-c2ccc(F)cc2)c(-c2ccnc(NC(C)c3ccccc3)c2)[nH]1` (centres undefined), the inhibition at 10 µM against CYP2C19 was found to be 83.5%; against CYP2C9 it was 79%; on CYP3A4 it was 79.2%; against CYP1A2, 66.7%; on CYP2D6, 31.1%.

`CC(Nc1cc(-c2[nH]c(SCc3ccccc3)nc2-c2ccc(F)cc2)ccn1)c1ccccc1` (centres undefined): the IC50 was 380 nM on MAP kinase p38 [3], 45 nM against MAP kinase p38 [1] and 2700 nM at MAP kinase p38 [2].

Regarding `Fc1ccc(-c2nc(SCc3ccccc3)[nH]c2-c2ccnc(F)c2)cc1`, the half-inhibitory concentration (IC50) turned out to be 4200 nM at MAP kinase p38 [3], 2900 nM against MAP kinase p38 [1] and 40500 nM against MAP kinase p38 [2].

For `CSc1nc(-c2ccnc(O)c2)c(-c2ccc(F)cc2)n1C`, the IC50 on MAP kinase p38 [1] came out at 7200 nM; against MAP kinase p38 [2], 31300 nM.

Regarding `CSc1nc(-c2ccc(F)cc2)c(-c2ccncc2)n1C`, the IC50 came to 2200 nM against MAP kinase p38 [3]; 450 nM on MAP kinase p38 [1]; 2200 nM against MAP kinase p38 [2]; 5100 nM at MAP kinase p38 [4]; 1080 nM against MAP kinase p38 [5].
